Experimental data: patent US10226458B2, “Pharmaceutical compositions comprising sorbitan esters” (Alkermes Pharma Ireland Limited, priority 2011, dated 2019)

Columns and labels:
[1] = Previous experiments on wetting of Compound A-7 solids load by polysorbate 20; assay type: physicochemical; conditions: 25.6 wt % solids load of Compound A-7 bulk recrystallized drug substance
[2] = Solubility of Compound A-7 in vehicles containing varying amounts of sorbitan monolaurate; assay type: physicochemical; conditions: 10 mM phosphate buffer, 0.2% polysorbate 20, saline, 0%-0.75% sorbitan laurate, 25° C., HPLC (FIG. 9)
Procedure: • a. Injection vehicles comprised of ca. 10 mM phosphate buffer, 0.2% polysorbate 20, saline and various amount of sorbitan laurate (0%-0.75%) were prepared. The injection vehicles were stirred for 4 hours before preparing suspension preparation. • b. Approximately 1.25±0.05 g of Compound A-7 were added to 15 mL injection vehicles in a 20-mL glass scintillation vial with a ⅞″× 5/16″ stirring bar. The suspension was vigorously stirred on Chemglass CG-1990-T-50 hotplate at 25° C. which was controlled using a thermal sensor. • c. At each time point, a total of 3 mL of -mixed suspension were transferred into two 1.5-mL centrifuge tubes using a plastic pipette. The tubes were centrifuged at 14,000 rpm for 4 minutes. The supernatant of both tubes were combined and centrifuged again at 14,000 rpm for 4 minutes. The HPLC sample was then prepared with final (2nd) centrifuged supernatant by diluting 0.4 mL supernatant with 0.6 mL THF. • d. Concentration of dissolved Compound A-7 was determined using HPLC.

[3] = Wettability characterization: free energy of immersion and spreading coefficient of Compound A-7 in injection vehicles; assay type: physicochemical; conditions: recrystallized Compound A-7 against the named injection vehicle formulation; predicted from vehicle surface tension and solid surface energy
Excerpt: A surface energy measurement methodology was developed that would allow for facile screening of formulation candidates with minimal use of drug substance. These experiments utilize the surface tension of the injection vehicle and surface energy of the solid to predict the immersional free energy and spreading coefficient between the liquid and the solid.
A force-balance tensiometer (Attension Sigma® 701) with a platinum Wilhelmy plate was used to measure the surface energy (tension) of the vehicle of interest. This was done using a 30 mL sample of the vehicle of interest and taking 8 individual surface tension measurements. The first 3 measurements were discarded as being non-representative of equilibrium conditions, and the remaining measurements were averaged to give the surface tension value. […] To then obtain the polar and non-polar (dispersive) components of the surface tension, a polytetrafluoroethylene (PTFE) contact angle standard (Rame-Hart) was affixed to the tensiometer and the dynamic contact angle was measured. […]
With the total surface tension of the liquid, and the contact angle of the liquid on a non-polar surface with known surface energy attributes, the polar and dispersive components of the surface tension were calculated. […]

rats = test: Subcutaneous injection site reaction model; conditions: single SC injection, Day 10, formulations comprising sorbitan laurate compared to formulations with no sorbitan laurate (FIGS. 8A, 8B)
[4] = cited from earlier work

For `CCCCCCCCCCCC(=O)OCN1C(=O)CCc2ccc(OCCCCN3CCN(c4cccc(Cl)c4Cl)CC3)cc21` [Compound A-7, (7-(4-(4-(2,3-dichlorophenyl)piperazin-1-yl)butoxy)-2-oxo-3,4-dihydroquinolin-1(2H)-yl)methyl dodecanoate], the “polysorbate 20 required to adequately wet the drug substance” value [1] was “at least 0.1%” and the “solubility (concentration of dissolved Compound A-7)” value [2] was “decreases solubility up to 0.5 wt % SML with solubility increasing again above 0.5 wt. %”.
With Water the “FREE ENERGY OF IMMERSION” value [3] was 10 mN/m and the “SPREADING COEFFICIENT” value [3] was −83.3 mN/m.
In the case of `O=C1CCc2ccc(OCCCCN3CCN(c4cccc(Cl)c4Cl)CC3)cc2N1` [aripiprazole (free base), 7-{4-[4-(2,3-dichlorophenyl)-1-piperazinyl]butoxy}-3,4-dihydro-2(1H)-quinolinone], the “injection site reaction (weight of excised ISR)” value (rats) is listed as “significant reduction in injection site reaction”, the tissue irritation ([4]; following IM and SC injection) is listed as “unacceptable (moderate to severe) tissue irritation” and the pharmacokinetic profile ([4]; long-acting injections) is listed as “prolonged pharmacokinetic profile”.
In the case of `Cc1cc2c(s1)Nc1ccccc1N=C2N1CCN(C)CC1.O.O=C(O)c1cc2ccccc2c(Cc2c(O)c(C(=O)O)cc3ccccc23)c1O` [olanzapine pamoate], the “injection site reaction (weight of excised ISR)” value (rats) is reported as “significant reduction in injection site reaction”.
